According to patent publication US4312867A, “Antibacterial compounds, processes for their preparation and compositions containing them” (Beecham Group Limited, priority 1979, dated 1982):
In brackets after ≈: the same amount, converted by molar mass.

What was measured:
Assay type in all cases: cell-based
[1] = test system: Strep uberis SPU1; assay: MIC veterinary bacteria (Table 2), serial dilution in agar; conditions: diagnostic sensitivity test agar
[2] = test system: Past multocida PA2; assay: as above; conditions: diagnostic sensitivity test agar
[3] = test system: Strep faecalis I; assay: MIC human bacteria (Table 1), serial dilution in nutrient agar; conditions: nutrient agar with 5% chocolated horse blood
[4] = test system: Strep pyogenes B 2788; assay: as above; conditions: nutrient agar with 5% chocolated horse blood
[5] = test system: Corynebacterium xerosis 9755; assay: as above; conditions: nutrient agar with 5% chocolated horse blood, read-out: MIC
[6] = test system: E. coli NCTC 10418; assay: MIC veterinary bacteria (Table 2), serial dilution in agar; conditions: Escherichia coli, NCTC10418
[7] = test system: Corynebacterium pyogenes CY1; assay: as above; conditions: Trueperella pyogenes, diagnostic sensitivity test agar
[8] = test system: Bord bronchiseptica B09; assay: as above; conditions: diagnostic sensitivity test agar
[9] = test system: Bord bronchiseptica B08; assay: as above; conditions: diagnostic sensitivity test agar
[10] = test system: Bacillus subtilis 6633; assay: MIC human bacteria (Table 1), serial dilution in nutrient agar; conditions: nutrient agar with 5% chocolated horse blood
[11] = test system: Ps. aeruginosa 10662; assay: as above; conditions: Pseudomonas aeruginosa, nutrient agar with 5% chocolated horse blood
[12] = test system: Strep pyogenes C 2761; assay: as above; conditions: nutrient agar with 5% chocolated horse blood
[13] = test system: Staph aureus Russell; assay: as above; conditions: Staphylococcus aureus, nutrient agar with 5% chocolated horse blood
[14] = test system: Strep suis (group D) SPS11; assay: MIC veterinary bacteria (Table 2), serial dilution in agar; conditions: diagnostic sensitivity test agar
[15] = test system: Past haemolytica PA5; assay: as above; conditions: diagnostic sensitivity test agar
[16] = test system: Pasteurella multocida 1633; assay: MIC human bacteria (Table 1), serial dilution in nutrient agar; conditions: Pasteurella multocida, 1633
[17] = test system: P. mirabilis 889; assay: as above; conditions: Proteus mirabilis, 889
[18] = test system: E. coli E1; assay: MIC veterinary bacteria (Table 2), serial dilution in agar; conditions: Escherichia coli, diagnostic sensitivity test agar
[19] = test system: Staph aureus W2827; assay: MIC human bacteria (Table 1), serial dilution in nutrient agar; conditions: Staphylococcus aureus, nutrient agar with 5% chocolated horse blood
[20] = test system: E. coli NCTC 10418; assay: as above; conditions: Escherichia coli, NCTC10418
[21] = test system: E. coli ESS; assay: as above; conditions: Escherichia coli; E. coli ESS; nutrient agar with 5% chocolated horse blood; read-out: MIC
[22] = test system: Haemophilus influenzae Q1; assay: as above; conditions: Haemophilus influenzae, Q1
[23] = test system: Staph aureus Oxford; assay: MIC veterinary bacteria (Table 2), serial dilution in agar; conditions: Staphylococcus aureus
[24] = test system: S. dublin S7; assay: as above; conditions: Salmonella enterica, diagnostic sensitivity test agar
[25] = test system: Staph aureus Oxford; assay: MIC human bacteria (Table 1), serial dilution in nutrient agar; conditions: Staphylococcus aureus, nutrient agar with 5% chocolated horse blood
[26] = test system: Haemophilus influenzae Wy21; assay: as above; conditions: Haemophilus influenzae, WY21
[27] = test system: Staph aureus B4 (pen. resis); assay: MIC veterinary bacteria (Table 2), serial dilution in agar; conditions: Staphylococcus aureus
[28] = test system: Sarcina lutea 8340; assay: MIC human bacteria (Table 1), serial dilution in nutrient agar; conditions: Micrococcus luteus, nutrient agar with 5% chocolated horse blood, read-out: MIC
[29] = test system: Strep agalactiae SPA1; assay: MIC veterinary bacteria (Table 2), serial dilution in agar; conditions: diagnostic sensitivity test agar
[30] = test system: Erysipelothrix rhusiopathiae NCTC 8163; assay: as above; conditions: NCTC8163; Erysipelothrix rhusiopathiae NCTC 8163; diagnostic sensitivity test agar; read-out: MIC
[31] = test system: K. aerogenes A; assay: MIC human bacteria (Table 1), serial dilution in nutrient agar; conditions: Klebsiella aerogenes, nutrient agar with 5% chocolated horse blood
[32] = test system: M pneumoniae ATCC 15492; assay: in vitro anti-mycoplasmal MIC, Friis' agar (Table 3)
Procedure: (§1) The minimum inhibitory concentrations (MIC) of the examples were determined by either:
(§2) or (ii) by serial dilution in Friis' agar medium.

[33] = test system: M pneumoniae 427a; assay: as above
Procedure: as §1, §2

[34] = test system: M alkalescens NCTC 10135; assay: as above
Procedure: as §1, §2

[35] = test system: M hyosynoviae ATCC 25591; assay: as above
Procedure: as §1, §2

[36] = test system: M gallisepticum S6; assay: as above
Procedure: as §1, §2

[37] = test system: M synoviae ATCC 25204; assay: as above
Procedure: as §1, §2

[38] = test system: M arthritidis ATCC 14124; assay: as above
Procedure: as §1, §2

[39] = test system: M pulmonis JB; assay: as above
Procedure: as §1, §2

[40] = test system: M fermentans MWKL4; assay: as above
Procedure: as §1, §2

[41] = test system: M hyorhinis ATCC 23234; assay: as above
Procedure: as §1, §2

[42] = test system: M bovigenitalium ATCC 14173; assay: as above
Procedure: as §1, §2

[43] = test system: Strep dysgalaciae SPD1; assay: MIC veterinary bacteria (Table 2), serial dilution in agar; conditions: diagnostic sensitivity test agar
[44] = test system: Past multocida PA1; assay: as above; conditions: diagnostic sensitivity test agar
[45] = test system: M pneumoniae ATCC 15492; assay: in vitro anti-mycoplasmal MIC, Friis' broth (Table 3)
Procedure: as §1
(§3) (i) in Friis' broth using microtitre plates, by modification of the metabolic-inhibition test (Taylor-Robinson, Post Frad, Med. J., 1967, 43, 100).

[46] = test system: M pneumoniae 427a; assay: as above
Procedure: as §1, §3

[47] = test system: M suipneumoniae J2206/183b; assay: as above
Procedure: as §1, §3

[48] = test system: M pulmonis JB; assay: as above
Procedure: as §1, §3

[49] = test system: M fermentans MWKL4; assay: as above
Procedure: as §1, §3

[50] = test system: M dispar NCTC 10125; assay: as above
Procedure: as §1, §3

[51] = test system: M dispar H225; assay: as above
Procedure: as §1, §3

[52] = test system: M suipneumoniae Str 11; assay: as above
Procedure: as §1, §3

[53] = test system: S. typhimurium S18; assay: MIC veterinary bacteria (Table 2), serial dilution in agar; conditions: Salmonella enterica, diagnostic sensitivity test agar
[54] = test system: Strep pyogenes A 64/848; assay: MIC human bacteria (Table 1), serial dilution in nutrient agar; conditions: nutrient agar with 5% chocolated horse blood
[55] = test system: Staph aureus 152 (pen. sens); assay: MIC veterinary bacteria (Table 2), serial dilution in agar; conditions: Staphylococcus aureus, diagnostic sensitivity test agar

SMILES: C/C(=C\C(=O)OCCCS(N)(=O)=O)CC1OCC(CC2OC2C(C)C(C)O)C(O)C1O (stereo not shown) [Example 1, 3-Sulphamoylpropyl monate A]
- MIC [1]: 1.25 µg/mL (≈ 2.68 µM)
- MIC [2]: 0.156 µg/mL (≈ 0.335 µM)
- MIC [3]: > 100 µg/mL
- MIC [4]: 2.5 µg/mL (≈ 5.37 µM)
- MIC [5]: > 100 µg/mL
- MIC [6]: > 80 µg/mL
- MIC [7]: > 80 µg/mL
- MIC [8]: 20 µg/mL (≈ 43 µM)
- MIC [9]: 80 µg/mL (≈ 172 µM)
- MIC [10]: 10 µg/mL (≈ 21.5 µM)
- MIC [11]: > 100 µg/mL
- MIC [12]: 2.5 µg/mL (≈ 5.37 µM)
- MIC [13]: 50 µg/mL (≈ 107 µM)
- MIC [14]: 80 µg/mL (≈ 172 µM)
- MIC [15]: 10 µg/mL (≈ 21.5 µM)
- MIC [16]: 0.5 µg/mL (≈ 1.07 µM)
- MIC [17]: 100 µg/mL (≈ 215 µM)
- MIC [18]: > 80 µg/mL
- MIC [19]: 100 µg/mL (≈ 215 µM)
- MIC [20]: > 100 µg/mL
- MIC [21]: 25 µg/mL (≈ 53.7 µM)
- MIC [22]: 0.05 µg/mL (≈ 0.107 µM)
- MIC [23]: 40 µg/mL (≈ 85.9 µM)
- MIC [24]: > 80 µg/mL
- MIC [25]: 50 µg/mL (≈ 107 µM)
- MIC [26]: 0.05 µg/mL (≈ 0.107 µM)
- MIC [27]: 40 µg/mL (≈ 85.9 µM)
- MIC [28]: > 100 µg/mL
- MIC [29]: 2.5 µg/mL (≈ 5.37 µM)
- MIC [30]: > 80 µg/mL
- MIC [31]: > 100 µg/mL
- MIC [32]: 5 µg/mL (≈ 10.7 µM)
- MIC [33]: 2.5 µg/mL (≈ 5.37 µM)
- MIC [34]: 0.039 µg/mL (≈ 0.0838 µM)
- MIC [35]: 0.156 µg/mL (≈ 0.335 µM)
- MIC [36]: > 10 µg/mL
- MIC [37]: < 0.02 µg/mL
- MIC [38]: > 10 µg/mL
- MIC [39]: 0.039 µg/mL (≈ 0.0838 µM)
- MIC [40]: 0.078 µg/mL (≈ 0.168 µM)
- MIC [41]: 0.312 µg/mL (≈ 0.67 µM)
- MIC [42]: 0.039 µg/mL (≈ 0.0838 µM)
- MIC [43]: 2.5 µg/mL (≈ 5.37 µM)
- MIC [44]: 0.625 µg/mL (≈ 1.34 µM)
- MIC [45]: 2.5 µg/mL (≈ 5.37 µM)
- MIC [46]: 2.5 µg/mL (≈ 5.37 µM)
- MIC [47]: 0.312 µg/mL (≈ 0.67 µM)
- MIC [48]: 0.02 µg/mL (≈ 0.043 µM)
- MIC [49]: 0.039 µg/mL (≈ 0.0838 µM)
- MIC [50]: 0.078 µg/mL (≈ 0.168 µM)
- MIC [51]: 0.039 µg/mL (≈ 0.0838 µM)
- MIC [52]: 0.078 µg/mL (≈ 0.168 µM)
- MIC [53]: > 80 µg/mL
- MIC [54]: 0.5 µg/mL (≈ 1.07 µM)
- MIC [55]: 20 µg/mL (≈ 43 µM)
